Laboratory results reported in patent US20100273748A1, “ANTIMICROBIAL THERAPY” (priority 2006, published 2010).

Tests used:
[1] = test system: S. aureus; assay: Release of cytoplasmic-expressed beta-galactosidase (membrane disruption); type: cell-based; conditions: with versus without NaHCO3
Procedure: Release of cytoplasmic-expressed beta-galactosidase was measured from bacteria with and without the addition of NaHCO3.

[2] = test system: keratinocytes; assay: Keratinocyte morphology, LDH release and Annexin V/propidium iodide staining; type: cell-based, human; conditions: 24 hours after butyrate alone or in combination with 1,25D3
[3] = test system: Staphylococcus aureus; assay: Bacterial growth inhibition (turbidity OD600) with or without carbonate; type: cell-based; conditions: for inhibition of S. aureus growth: 32 μM LL-37
[4] = test system: wild-type S. aureus (clinical isolate); assay: Radial diffusion assay; type: cell-based
[5] = test system: S. aureus; assay: Electron microscopy of bacterial cell wall lysis; type: cell-based
[6] = test system: neutrophil and mast cell; assay: Neutrophil and mast cell chemotaxis; type: cell-based
[7] = target: T1, FPRL-1 (Homo sapiens, UniProt P25090); assay: FPRL-1 binding
T1 sequence (P25090 1-351): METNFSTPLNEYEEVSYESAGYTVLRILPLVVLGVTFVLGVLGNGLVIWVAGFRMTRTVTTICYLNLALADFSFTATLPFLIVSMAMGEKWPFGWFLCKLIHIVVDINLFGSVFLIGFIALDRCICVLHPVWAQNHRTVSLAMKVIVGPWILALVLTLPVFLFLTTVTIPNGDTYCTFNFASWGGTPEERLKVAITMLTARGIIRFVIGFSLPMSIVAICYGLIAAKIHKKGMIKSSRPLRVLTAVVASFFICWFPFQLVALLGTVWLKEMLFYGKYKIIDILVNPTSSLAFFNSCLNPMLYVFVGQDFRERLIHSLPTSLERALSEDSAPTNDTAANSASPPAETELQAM

[8] = test system: dendritic cells; assay: Pro-inflammatory chemokine release from dendritic cells; type: cell-based
[9] = test system: IL-8; assay: IL-8 release from normal human keratinocytes (ELISA); type: cell-based
Procedure: Measurement of IL-8 release from keratinocytes Normal human keratinocytes (NHK) were cultured in EpiLife cell medium (Cascade Biologics, Portland, Oreg.) containing 0.06 mM Ca2+, 1× EpiLife-defined growth supplement (EDGS), 50 U/ml penicillin and […] streptomycin (Invitrogen, Carlsbad, Calif.). Keratinocytes were seeded in a 96-well plate and grown to confluence under standard tissue culture conditions. Cells were incubated with […] LL-37 or LL37-derived peptides (e.g., cathelicidin functional fragments) for 8 hours at 37° C. Supernatants were collected and stored at −20° C. overnight. IL-8 ELISA Assay was performed according to the manufacturer's instructions (BD OptEIA, Pharmingen, San Diego, Calif.). Supernatants were diluted 1:10 for assay. Simultaneously, LDH assays (Roche, Indianapolis, Ind.) were used to assess the cytotoxicity of peptides to keratinocytes. LDH release following peptide exposure was compared to release induced by 1% Triton X100.

[10] = test system: Staphylococcus aureus mprF; assay: Radial diffusion assay; type: cell-based
Procedure: Sweat collection and processing. Sweat was collected on paper tissues (Kimwipes, Kimberly-Clark, Ga.) from healthy volunteers after exercise. After collection, 20 ml of sweat was centrifuged at 2000 g for 15 min. at 4° C., filtered through a […] (Acrodisc syringe filter, 0.2 mm, low protein binding, Fisher scientific, Tustin, Calif.), and frozen at −80° C. For some experiments sweat was lyophilized to dryness, then suspended in 400 μl of distilled water (DW: cell culture grade, endotoxin free, GibcoBRL, Grand island, NY). For analysis of LL37 processing by sweat, 1.6 nmol of LL-37 synthetic peptide was incubated in 50 ml of sweat for 0, 1, 6, 24 hrs at 37° C. or 4° C. In some experiments proteinase inhibitors including; mixed protease inhibitor cocktail (1tab/10 ml, Roche, Indianapolis, Ind.), […] Bestatin, 10 mg/ml E-64, 10 mg/ml Aprotinin, (Sigma, St Louis, Mo.); 100 mM AEBSF, 100 mM Neutrophil elastase inhibitor (NEI) or 100 mM leukocyte elastase inhibitor (LEI) (Calbiochem, San Diego, Calif.) were added during incubation. After incubation, 2 ml was assayed by radial diffusion assay to determine antibacterial activity. For analysis by HPLC 32 nmoles LL-37 was incubated in 100u1. To control for potential contamination from paper tissues, parallel processing was done on tissues soaked in phosphate-buffered saline (PBS:137 mM NaCl, 2.7 mM KCL, 4.3 mM Na2HPO4-H2O, 1.4 mM KH2PO4, pH 7.4). No antimicrobial activity was detectable in these preparations. Protein concentrations were evaluated by BCA assay (protein assay reagent, Pierce, Rockford, Ill.) or Bradford protein assay (Bio-Rad, Hercules, Calif.) according to manufacture's instructions. Human tissue and blood collection was approved by the UCSD Human Research Protection Program.
Antimicrobial assays. For screening of antimicrobial activity of HPLC fractions, radial diffusion assay was used. Lyophilized HPLC fractions were dissolved in DW (GibcoBRL, Grand Island, N.Y.), and tested against Staphylococcus aureus mprF. Thin plates (1 mm) of 1% agarose in 0.5% tryptone containing approximately 1×10^6 cells/ml of S. aureus mprF were used. 1 mm wells were punched in the plates and […] of samples dissolved in tissue culture grade sterile water were loaded in each well.

[11] = test system: CYP27B1; assay: qPCR of CYP27B1 mRNA in cultured keratinocytes; type: cell-based, human; conditions: 24 hours, TGF 1 μg/ml, TNFα 20 ng/ml, TLR2 ligand Malp-2
Procedure: Cell culture and stimuli. Human keratinocytes were grown in serum-free EpiLife® cell culture media (Cascade Biologics; Portland, Oreg.) containing 0.06 mM Ca2+ and 1× EpiLife® defined growth supplement (EDGS) at 37° C. under standard tissue culture conditions. Stock cultures were maintained for up to five passages in this media with the addition of 50 U/mL penicillin and 50 μg/mL streptomycin. HaCaT keratinocytes were cultured in DMEM (Sigma, St. Louis, Mo.) with 10% FCS. Cells at 50-70% confluence were stimulated in fresh medium after preincubation with 1,25(OH)2 vitamin D3 (1,25D3; 0.1-100 nM, 4-24 h; Sigma). Alternatively, NHEK were stimulated in the presence of 1,25D3 (0.1-100 nM). […]
Real-time RT-PCR (qPCR). […] Expression of cathelicidin and GAPDH was analysed by real-time RT-PCR. […] Fold induction relative to the vehicle treated control in in vitro experiments was calculated using the comparative Ct method, where ΔΔCt is ΔCt(stimulant)-ΔCt(vehicle), ΔCt is Ct(gene)-Ct(GAPDH) and Ct is the cycle at which an arbitrary detection threshold is crossed. For quantification of transcript abundance in tissue samples target gene expression was normalized to GAPDH and compared to non-treated or non-injured skin.

## Polymyxin B
[1]
  leakage of cytoplasmic protein (beta-galactosidase): induces greater leakage of cytoplasmic protein with carbonate

## CCCC(=O)O [butyrate]
[2]
  cell morphology, cell death or apoptosis: no change was seen in cell morphology, cell death or apoptosis

## LLGDFFRKSKEKIGKEFKRIVQRIKDFLRNLVPRTES [LL-37]
[1]
  leakage of cytoplasmic protein (beta-galactosidase): induces greater leakage of cytoplasmic protein with carbonate
[3]; TSB media alone, or with NaCl and FBS
  inhibition of S. aureus growth: inhibited Staphalococcus aureus growth poorly
[3]; in the presence of MEM buffers
  inhibition of S. aureus growth: inhibition was greatly increased
[3]; 32 μM LL-37 with 25 mM NaHCO3, pH 7.4
  growth of S. aureus: complete inhibition of bacterial growth
[3]; 50 mM NaHCO3 or 50 mM glycine buffer at various pH
  antimicrobial activity of LL-37, bicarbonate versus pH: Only bicarbonate containing media was able to confer increased antimicrobial activity
[3]; 20% TSB, 1 mM NaH2PO4, with or without 50 mM NaHCO3, pH 7.4
  change of minimal inhibitory concentration (MIC) by NaHCO3: greatly reduced
[4]
  Radial Diffusion Assay, minimal inhibitory concentration (MIC), S. aureus (wt): 4 μm
[5]; 32 μM LL-37, absence of NaHCO3, four hours
  bacterial cell wall damage (EM): caused a small amount of damage to bacterial cell walls
[5]; 32 μM LL-37 with 25 mM NaHCO3, four hours
  bacterial cell wall damage (EM): totally ablated them
[6]
  neutrophil and mast cell chemotaxis: induces neutrophil and mast cell chemotaxis
[7]
  binding to FPRL-1: bind FPRL-1
[8]
  pro-inflammatory chemokine release from dendritic cells: blocks pro-inflammatory chemokine release
[9]
  pro-inflammatory release from keratinocytes: induces pro-inflammatory release
[10]; identical conditions in PBS or distilled water
  zone of inhibition after incubation of LL-37 in PBS or distilled water: did not affect activity
[10]; incubation at 37° C. in sweat
  zone of inhibition after incubation of LL-37 in sweat: increased the zone of inhibition and apparent antimicrobial activity
[10]; incubation in sweat at 4° C.
  zone of inhibition after incubation of LL-37 in sweat: did not occur at 4 °C

## TNFα
[11]
  CYP27B1 expression: had no effect

## O=C(O)O [NaHCO3]
[3]; 25 mM NaHCO3, no peptide
  effect of NaHCO3 alone on bacterial growth: without effecting bacterial growth
[3]; high concentrations of NaHCO3
  effect of NaHCO3 alone on bacterial growth: retarded the growth of S. aureus
[3]; medium with 32 μM LL-37, pH 7.4, KHCO3 and Na2CO3 at 50 mM
  increase of LL-37 antimicrobial activity by carbonate containing compound: responsible for this increase
[5]; 25 mm NaHCO3 alone
  bacterial cell wall damage (EM): no visible effect
